Measurements taken from patent US11149029B2, “Salts of IJAK inhibitors and methods of using the same” (AstraZeneca AB, priority 2018, dated 2021).
Where “and” joins values, the source holds several entries; their conditions need not be identical. Equal entries are not always repeated. Structures can show the parent of a compound that is named as a salt.

Key:
[1] = Gravimetric vapor sorption analysis (GVS), water absorption 0-80% relative humidity; assay type: physicochemical; conditions: for Water absorption 0-80% RH (% w/w): gravimetric vapor sorption
[2] = Weight loss on heating from room temperature to 120° C.; assay type: physicochemical; conditions: heating from room temperature (RT) to 120° C.
Experimental: From the crystal structure (performed using single crystal X-ray diffraction, SXRD) of the free base compound of Formula (Ia), it was determined that the form was a non-stoichiometric hydrate.
Accordingly, a salt screen was performed and out of 20 counter ions tested, three salts (phosphoric, sulfuric and xinafoic salt) were scaled up (5 g) and further analysis was performed. […] (sulfuric salt) and 5.4% w/w RT−120° C. (phosphoric salt).
Screening was performed at Almac including over 110 solvent and non-solvent based screening experiments.

[3] = listed as free base compound of Formula (Ia)

| Compound | Hygroscopicity (in words) [1] | Water absorption 0-80% RH (% w/w) [1] | Water absorption 0-80% RH (% w/w) [1, 3] | Weight loss RT-120° C. (% w/w) [2] | Weight loss RT-120° C. (% w/w) [2, 3] | Water absorption 0-80% RH (% w/w) ([1]; listed as xinafoate salt) | Weight loss RT-120° C. (% w/w) ([2]; listed as xinafoate salt) |
| --- | --- | --- | --- | --- | --- | --- | --- |
| COC[C@H](C(=O)Nc1cccc2c(-c3nc(Nc4cccc(S(C)(=O)=O)c4F)ncc3F)c[nH]c12)N1CCN(C)CC1 [Free base compound of Formula (Ia), (R)—N-(3-(5-fluoro-2-(2-fluoro-3-(methylsulfonyl)phenylamino)pyrimidin-4-yl)-1H-indol-7-yl)-3-methoxy-2-(4-methylpiperazin-1-yl)propanamide] | slightly hygroscopic | ~1.7 % w/w | 2 % w/w and 1.7 % w/w | ~5 % w/w | 5 % w/w | – | – |
| COC[C@H](C(=O)Nc1cccc2c(-c3nc(Nc4cccc(S(C)(=O)=O)c4F)ncc3F)c[nH]c12)N1CCN(C)CC1 [Xinafoate salt of compound of Formula (Ia)] [4-{(2R)-1-[(3-{5-fluoro-2-[2-fluoro-3-(methanesulfonyl)anilino]pyrimidin-4-yl}-1H-indol-7-yl)amino]-3-methoxy-1-oxopropan-2-yl}-1-methylpiperazin-1-ium; 1-hydroxynaphthalene-2-carboxylate] | non-hygroscopic | ~0.2 % w/w | – | ~0.2 % w/w | – | 0.2 % w/w | 0.2 % w/w |
